This experiment relates to P388. The experiment is described as follows: Cytotoxicity against mouse P388 cells. Type of experiment: functional, cell-based.

SMILES strings stand for the structures. ≈ marks a conversion by molar mass, not a printed value.

As to `COC(CC1OC(=O)CC(O)CC(SC[C@H](NC(=O)CC[C@H](N)C(=O)O)C(=O)NCC(=O)O)CC(=O)C(C)C(OC)c2coc(n2)-c2coc(n2)-c2coc(n2)/C=C/CC(OC)C1C)C(C)CCC(=O)C(C)C(OC(C)=O)C(C)/C=C/N(C)C=O` (some centres not stated) [THIOMYCALOLIDE A], the IC50 – broadly, the concentration that gives 50% inhibition – worked out at 0.018 µg/mL (≈ 0.0148 µM).
The value for `COCC(OC)C(=O)OC(CCC(C)C(CC1OC(=O)CC(O)CC(SC[C@H](NC(=O)CC[C@H](N)C(=O)O)C(=O)NCC(=O)O)CC(=O)C(C)C(OC)c2coc(n2)-c2coc(n2)-c2coc(n2)/C=C/CC(OC)C1C)OC)C(C)C(OC(C)=O)C(C)/C=C/N(C)C=O` (some centres not stated) [THIOMYCALOLIDE B] was 0.018 µg/mL (≈ 0.0135 µM).
